Laboratory results from PubChem BioAssay AID2060892 (Molecular Pharmacology Branch, DTP, NCI, 2025).

Test system: HOP-62 complex spheroids with HUVEC/MSC, viability
Assay: Anticancer human tumor HOP-62 cell line growth inhibition [RAS];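 also: spheroids exposed to agents for seven days before readout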;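 as to viability, T/C: 100% = DMSO vehicle control viability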
Details: for IC50: curve of first compound; for viability, T/C: stronger effect = lower value
Method in brief: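 Multi-cell-type spheroids: tumor cells plus HUVEC endothelial cells and mesenchymal stem cells. RAS-pathway inhibitors were combined with targeted agents, each dosed in half-log steps down from clinical Cmax, or from 10 microM when Cmax was unknown.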

C=CC(=O)N1CCN(c2nc(OCC3CCCN3C)nc3c(F)c(-c4nc(N)cc(C)c4C(F)(F)F)c(Cl)cc23)C(C)C1 (centres undefined) + CCn1c(-c2cccnc2C(C)OC)c2c3cc(ccc31)N1CCOC(CC(NC(=O)C(C(C)C)N(C)C(=O)C3(F)CCN(C(=O)C#CC(C)(C)N(C)C)CC3)C(=O)N3CCCC(N3)C(=O)OCC(C)(C)C2)C1
IC50 (second compound 0.000949 µM): > 1000 nM | IC50 (second compound 0.003 µM): > 1000 nM | IC50 (second compound 0.00949 µM): > 1000 nM | IC50 (second compound 0.03 µM): > 1000 nM | IC50 (second compound 0.0949 µM): > 1000 nM | IC50 (second compound 0.3 µM): > 1000 nM | viability, T/C (second compound 0.000949 µM, first compound 0.00316 µM): 103% | viability, T/C (second compound 0.000949 µM, first compound 0.01 µM): 101% | viability, T/C (second compound 0.000949 µM, first compound 0.0316 µM): 69.5% | viability, T/C (second compound 0.000949 µM, first compound 0.1 µM): 88.2% | viability, T/C (second compound 0.000949 µM, first compound 0.316 µM): 95.6% | viability, T/C (second compound 0.000949 µM, first compound 1 µM): 71.1% | viability, T/C (second compound 0.003 µM, first compound 0.00316 µM): 88.7% | viability, T/C (second compound 0.003 µM, first compound 0.01 µM): 87.3% | viability, T/C (second compound 0.003 µM, first compound 0.0316 µM): 76.8% | viability, T/C (second compound 0.003 µM, first compound 0.1 µM): 92.5% | viability, T/C (second compound 0.003 µM, first compound 0.316 µM): 84.9% | viability, T/C (second compound 0.003 µM, first compound 1 µM): 72.9% | viability, T/C (second compound 0.00949 µM, first compound 0.00316 µM): 90.4% | viability, T/C (second compound 0.00949 µM, first compound 0.01 µM): 87.6% | viability, T/C (second compound 0.00949 µM, first compound 0.0316 µM): 85.3% | viability, T/C (second compound 0.00949 µM, first compound 0.1 µM): 89.8% | viability, T/C (second compound 0.00949 µM, first compound 0.316 µM): 91% | viability, T/C (second compound 0.00949 µM, first compound 1 µM): 74.7% | viability, T/C (second compound 0.03 µM, first compound 0.00316 µM): 91.3% | viability, T/C (second compound 0.03 µM, first compound 0.01 µM): 92% | viability, T/C (second compound 0.03 µM, first compound 0.0316 µM): 87.7% | viability, T/C (second compound 0.03 µM, first compound 0.1 µM): 94.9% | viability, T/C (second compound 0.03 µM, first compound 0.316 µM): 79.1% | viability, T/C (second compound 0.03 µM, first compound 1 µM): 84.3% | viability, T/C (second compound 0.0949 µM, first compound 0.00316 µM): 86.5% | viability, T/C (second compound 0.0949 µM, first compound 0.01 µM): 91.2% | viability, T/C (second compound 0.0949 µM, first compound 0.0316 µM): 83.3% | viability, T/C (second compound 0.0949 µM, first compound 0.1 µM): 92.7% | viability, T/C (second compound 0.0949 µM, first compound 0.316 µM): 71.8% | viability, T/C (second compound 0.0949 µM, first compound 1 µM): 87.6% | viability, T/C (second compound 0.3 µM, first compound 0.00316 µM): 95.4% | viability, T/C (second compound 0.3 µM, first compound 0.01 µM): 75.1% | viability, T/C (second compound 0.3 µM, first compound 0.0316 µM): 73% | viability, T/C (second compound 0.3 µM, first compound 0.1 µM): 70.2% | viability, T/C (second compound 0.3 µM, first compound 0.316 µM): 74.6% | viability, T/C (second compound 0.3 µM, first compound 1 µM): 79.4%

CC1(C)CCC(Nc2ncc(C(F)(F)F)c(-c3c[nH]c4c(P(C)(C)=O)c(C#N)ccc34)n2)CN1 (centres undefined) + CCn1c(-c2cccnc2C(C)OC)c2c3cc(ccc31)N1CCOC(CC(NC(=O)C(C(C)C)N(C)C(=O)C3(F)CCN(C(=O)C#CC(C)(C)N(C)C)CC3)C(=O)N3CCCC(N3)C(=O)OCC(C)(C)C2)C1
IC50 (second compound 0.000949 µM): > 300 nM | IC50 (second compound 0.003 µM): > 300 nM | IC50 (second compound 0.00949 µM): > 300 nM | IC50 (second compound 0.03 µM): 202 nM | IC50 (second compound 0.0949 µM): 31.2 nM | IC50 (second compound 0.3 µM): 2.99 nM | viability, T/C (second compound 0.000949 µM, first compound 0.000949 µM): 108% | viability, T/C (second compound 0.000949 µM, first compound 0.003 µM): 94.5% | viability, T/C (second compound 0.000949 µM, first compound 0.00949 µM): 61.2% | viability, T/C (second compound 0.000949 µM, first compound 0.03 µM): 68.8% | viability, T/C (second compound 0.000949 µM, first compound 0.0949 µM): 80.4% | viability, T/C (second compound 0.000949 µM, first compound 0.3 µM): 44.4% | viability, T/C (second compound 0.003 µM, first compound 0.000949 µM): 105% | viability, T/C (second compound 0.003 µM, first compound 0.003 µM): 78.5% | viability, T/C (second compound 0.003 µM, first compound 0.00949 µM): 62.7% | viability, T/C (second compound 0.003 µM, first compound 0.03 µM): 73.5% | viability, T/C (second compound 0.003 µM, first compound 0.0949 µM): 62% | viability, T/C (second compound 0.003 µM, first compound 0.3 µM): 49.6% | viability, T/C (second compound 0.00949 µM, first compound 0.000949 µM): 97.3% | viability, T/C (second compound 0.00949 µM, first compound 0.003 µM): 60.6% | viability, T/C (second compound 0.00949 µM, first compound 0.00949 µM): 65.2% | viability, T/C (second compound 0.00949 µM, first compound 0.03 µM): 66.7% | viability, T/C (second compound 0.00949 µM, first compound 0.0949 µM): 61.6% | viability, T/C (second compound 0.00949 µM, first compound 0.3 µM): 52.5% | viability, T/C (second compound 0.03 µM, first compound 0.000949 µM): 86.8% | viability, T/C (second compound 0.03 µM, first compound 0.003 µM): 72.3% | viability, T/C (second compound 0.03 µM, first compound 0.00949 µM): 58.2% | viability, T/C (second compound 0.03 µM, first compound 0.03 µM): 54.4% | viability, T/C (second compound 0.03 µM, first compound 0.0949 µM): 42.8% | viability, T/C (second compound 0.03 µM, first compound 0.3 µM): 55.6% | viability, T/C (second compound 0.0949 µM, first compound 0.000949 µM): 83.3% | viability, T/C (second compound 0.0949 µM, first compound 0.003 µM): 58.5% | viability, T/C (second compound 0.0949 µM, first compound 0.00949 µM): 59.7% | viability, T/C (second compound 0.0949 µM, first compound 0.03 µM): 55.8% | viability, T/C (second compound 0.0949 µM, first compound 0.0949 µM): 33.1% | viability, T/C (second compound 0.0949 µM, first compound 0.3 µM): 55.1% | viability, T/C (second compound 0.3 µM, first compound 0.000949 µM): 73.3% | viability, T/C (second compound 0.3 µM, first compound 0.003 µM): 49.8% | viability, T/C (second compound 0.3 µM, first compound 0.00949 µM): 46.1% | viability, T/C (second compound 0.3 µM, first compound 0.03 µM): 40.6% | viability, T/C (second compound 0.3 µM, first compound 0.0949 µM): 40.1% | viability, T/C (second compound 0.3 µM, first compound 0.3 µM): 49.2%
